According to US20190021995A1, “FORMULATION FOR TREATMENT OF PERIPHERAL JOINTS, SPINAL JOINTS AND/OR EXTRACELLULAR MATRIX ELEMENTS OF CONNECTIVE TISSUE, METHOD OF MANUFACTURE AND USES” (priority 2015, published 2019):

Experiment: Studies of glucosamine salts delivered by the transdermal delivery system
From the text: In accordance with the present invention, the above-indicated studies have shown that the transdermal delivery system described above can be used for delivering, for example, any glucosamine salt such as glucosamine hydrochloride, glucosamine sulfate, glucosamine sulfate stabilized with sodium chloride or potassium chloride.

In the case of N[C@H]1C(O)O[C@H](CO)[C@@H](O)[C@@H]1O.O=S(=O)(O)O.[Cl-].[K+] (stereo partly shown) [glucosamine sulfate potassium chloride], the “bioavailability of glucosamine in blood plasma and synovial fluid among glucosamine salts” value is reported as “maximal bioavailability”.
